System: KRAS PDC multicell spheroid viability
Assay: Anticancer human tumor 521955-158-R6-J3-PDC patient-derived pancreatic carcinoma cell line growth inhibition [KRAS2]
Conditions: for IC50: curve of first compound; for viability, T/C: stronger effect = lower value
Method in brief: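 Combination screen of spheroid viability in tumor-cell co-cultures with endothelial (HUVEC) and mesenchymal stem cell stroma. Each agent was tested in half-log dilutions, topping at clinical Cmax or at 10 microM without a known Cmax.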

[1] = second compound 0.1 µM, first compound 0.0316 µM
[2] = second compound 0.1 µM, first compound 0.1 µM
[3] = second compound 0.1 µM, first compound 0.316 µM
[4] = second compound 0.1 µM, first compound 1 µM
[5] = second compound 0.1 µM, first compound 3.16 µM
[6] = second compound 0.1 µM, first compound 10 µM
[7] = second compound 0.316 µM, first compound 0.0316 µM
[8] = second compound 0.316 µM, first compound 0.1 µM
[9] = second compound 0.316 µM, first compound 0.316 µM
[10] = second compound 0.316 µM, first compound 1 µM
[11] = second compound 0.316 µM, first compound 3.16 µM
[12] = second compound 0.316 µM, first compound 10 µM
[13] = second compound 1 µM, first compound 0.0316 µM
[14] = second compound 1 µM, first compound 0.1 µM
[15] = second compound 1 µM, first compound 0.316 µM
[16] = second compound 1 µM, first compound 1 µM
[17] = second compound 1 µM, first compound 3.16 µM
[18] = second compound 1 µM, first compound 10 µM
[19] = second compound 3.16 µM, first compound 0.0316 µM
[20] = second compound 3.16 µM, first compound 0.1 µM
[21] = second compound 3.16 µM, first compound 0.316 µM
[22] = second compound 3.16 µM, first compound 1 µM
[23] = second compound 3.16 µM, first compound 3.16 µM
[24] = second compound 3.16 µM, first compound 10 µM
[25] = second compound 10 µM, first compound 0.0316 µM
[26] = second compound 10 µM, first compound 0.1 µM
[27] = second compound 10 µM, first compound 0.316 µM
[28] = second compound 10 µM, first compound 1 µM
[29] = second compound 10 µM, first compound 3.16 µM
[30] = second compound 10 µM, first compound 10 µM
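Note: drug exposure lasted seven days.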
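Throughout, for viability, T/C: 100% = DMSO vehicle wells and lower means fewer viable cells.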

Row | SMILES | IC50 (second compound 0.1 µM) | IC50 (second compound 0.316 µM) | IC50 (second compound 1 µM) | IC50 (second compound 3.16 µM) | IC50 (second compound 10 µM) | viability, T/C [1] | viability, T/C [2] | viability, T/C [3] | viability, T/C [4] | viability, T/C [5] | viability, T/C [6] | viability, T/C [7] | viability, T/C [8] | viability, T/C [9] | viability, T/C [10] | viability, T/C [11] | viability, T/C [12] | viability, T/C [13] | viability, T/C [14] | viability, T/C [15] | also measured
1 | CC1(C)CCC(CN2CCN(c3ccc(C(=O)NS(=O)(=O)c4ccc(NCC5CCOCC5)c([N+](=O)[O-])c4)c(Oc4cnc5[nH]ccc5c4)c3)CC2)=C(c2ccc(Cl)cc2)C1 + CNCc1ccccc1-c1csc(C(C)Nc2nc(C)nc3cc(OC)c(OC)cc23)c1 | 6.69 µM | 5.17 µM | 3.81 µM | < 0.0316 µM | < 0.0316 µM | 98.5% | 98.1% | 94.6% | 97.1% | 81.3% | 32.9% | 96.8% | 90.5% | 90.2% | 84.2% | 71% | 23.2% | 83% | 83.6% | 84.4% | viability, T/C [16]: 82.6%; viability, T/C [17]: 56.8%; viability, T/C [18]: 14.7%; viability, T/C [19]: 0.59%; viability, T/C [20]: 1.4%; viability, T/C [21]: 0.57%; viability, T/C [22]: 0.81%; viability, T/C [23]: 1.65%; viability, T/C [24]: 3.03%; viability, T/C [25]: 0.22%; viability, T/C [26]: 0.61%; viability, T/C [27]: 0.21%; viability, T/C [28]: 0.23%; viability, T/C [29]: 1.01%; viability, T/C [30]: 0.27%
2 | CCNC(=O)CC1N=C(c2ccc(Cl)cc2)c2cc(OC)ccc2-n2c(C)nnc21 (stereo not given) + CNCc1ccccc1-c1csc(C(C)Nc2nc(C)nc3cc(OC)c(OC)cc23)c1 | > 10 µM | > 10 µM | > 10 µM | < 0.0316 µM | < 0.0316 µM | 96.3% | 90.5% | 67.6% | 69.5% | 68.1% | 73.8% | 82.3% | 71.9% | 72.4% | 61% | 65.8% | 69.5% | 71.3% | 62% | 61.6% | viability, T/C [16]: 62.8%; viability, T/C [17]: 74.3%; viability, T/C [18]: 73%; viability, T/C [19]: 0.29%; viability, T/C [20]: 0.34%; viability, T/C [21]: 0.34%; viability, T/C [22]: 0.43%; viability, T/C [23]: 0.28%; viability, T/C [24]: 0.8%; viability, T/C [25]: 0.2%; viability, T/C [26]: 0.18%; viability, T/C [27]: 0.16%; viability, T/C [28]: 0.17%; viability, T/C [29]: 0.21%; viability, T/C [30]: 0.28%
3 | Cn1nccc1Nc1nccc(-c2cc3c(s2)C(C)(C)N(CCN2CCOCC2)C3=O)n1 + CC1OCC2(CCN(c3cnc(Sc4ccnc(N)c4Cl)c(N)n3)CC2)C1N | > 10 µM | > 10 µM | 7.94 µM | 2.83 µM | 1.51 µM | 89.8% | 93.9% | 94.2% | 81.2% | 68.4% | 62.6% | 93.9% | 95.5% | 90.3% | 67.4% | 63.7% | 57.1% | 88.4% | 98% | 82.2% | viability, T/C [16]: 72.2%; viability, T/C [17]: 53.7%; viability, T/C [18]: 49.2%; viability, T/C [19]: 82.1%; viability, T/C [20]: 88.4%; viability, T/C [21]: 72.7%; viability, T/C [22]: 59.9%; viability, T/C [23]: 47.8%; viability, T/C [24]: 47.7%; viability, T/C [25]: 93.2%; viability, T/C [26]: 86.6%; viability, T/C [27]: 71.9%; viability, T/C [28]: 53.6%; viability, T/C [29]: 43.4%; viability, T/C [30]: 39.5%
